Results: the NIST ThermoML archive (doi:10.1007/s10765-005-5570-x)
Where “and” joins values, the source holds several entries; their conditions need not be identical. Identical values can stand only once. ± gives the expanded uncertainty stated by the source.

What was measured:
[1] = Liquid
[2] = xn = mol fraction of the nth substance listed; settings: 101.33 kPa, Liquid, x2 = 0

Compound: ClCCCl [1,2-dichloroethane]
- mass density ([1]; 288.15 K, 101.33 kPa): 1260.13 ± 0.86 kg/m3
- mass density ([1]; 298.15 K, 101.33 kPa): 1246.59 ± 0.83 kg/m3
- mass density ([1]; 298.15 K, 200 kPa): 1245.68 ± 0.6 kg/m3
- mass density ([1]; 298.15 K, 500 kPa): 1246.02 ± 0.61 kg/m3
- mass density ([1]; 298.15 K, 1100 kPa): 1246.54 ± 0.63 kg/m3
- mass density ([1]; 298.15 K, 2000 kPa): 1247.41 ± 0.66 kg/m3
- mass density ([1]; 298.15 K, 3100 kPa): 1248.51 ± 0.7 kg/m3
- mass density ([1]; 298.15 K, 4100 kPa): 1249.53 ± 0.74 kg/m3
- mass density ([1]; 298.15 K, 5100 kPa): 1250.32 ± 0.78 kg/m3
- mass density ([1]; 298.15 K, 6100 kPa): 1251.22 ± 0.81 kg/m3
- mass density ([1]; 298.15 K, 7100 kPa): 1252.27 ± 0.85 kg/m3
- mass density ([1]; 298.15 K, 8000 kPa): 1253.07 ± 0.89 kg/m3
- mass density ([1]; 298.15 K, 8900 kPa): 1254 ± 0.92 kg/m3
- mass density ([1]; 298.15 K, 10100 kPa): 1255.18 ± 0.97 kg/m3
- mass density ([1]; 298.15 K, 12000 kPa): 1256.96 ± 1.1 kg/m3
- mass density ([1]; 298.15 K, 13900 kPa): 1258.84 ± 1.1 kg/m3
- mass density ([1]; 298.15 K, 15700 kPa): 1260.48 ± 1.2 kg/m3
- mass density ([1]; 298.15 K, 17700 kPa): 1262.37 ± 1.3 kg/m3
- mass density ([1]; 298.15 K, 19700 kPa): 1264.29 ± 1.4 kg/m3
- mass density ([1]; 308.15 K, 101.33 kPa): 1231.27 ± 0.79 kg/m3

Compound: ClCCBr [1-bromo-2-chloroethane]
- mass density ([1]; 288.15 K, 101.33 kPa): 1744.36 ± 2.6 kg/m3
- mass density ([1]; 298.15 K, 101.33 kPa): 1727.88 ± 2.6 kg/m3
- mass density ([1]; 298.15 K, 200 kPa): 1726.08 ± 2.2 kg/m3
- mass density ([1]; 298.15 K, 500 kPa): 1726.48 ± 2.2 kg/m3
- mass density ([1]; 298.15 K, 900 kPa): 1726.94 ± 2.2 kg/m3
- mass density ([1]; 298.15 K, 2000 kPa): 1728.17 ± 2.3 kg/m3
- mass density ([1]; 298.15 K, 2900 kPa): 1729.14 ± 2.4 kg/m3
- mass density ([1]; 298.15 K, 4100 kPa): 1730.57 ± 2.5 kg/m3
- mass density ([1]; 298.15 K, 4800 kPa): 1731.35 ± 2.5 kg/m3
- mass density ([1]; 298.15 K, 6000 kPa): 1732.77 ± 2.6 kg/m3
- mass density ([1]; 298.15 K, 6800 kPa): 1733.74 ± 2.7 kg/m3
- mass density ([1]; 298.15 K, 8000 kPa): 1735.1 ± 2.8 kg/m3
- mass density ([1]; 298.15 K, 8700 kPa): 1736.13 ± 2.9 kg/m3
- mass density ([1]; 298.15 K, 9600 kPa): 1737.17 ± 3 kg/m3
- mass density ([1]; 298.15 K, 11700 kPa): 1739.6 ± 3.2 kg/m3
- mass density ([1]; 298.15 K, 13900 kPa): 1742.49 ± 3.4 kg/m3
- mass density ([1]; 298.15 K, 15600 kPa): 1744.52 ± 3.5 kg/m3
- mass density ([1]; 298.15 K, 17600 kPa): 1747.12 ± 3.8 kg/m3
- mass density ([1]; 298.15 K, 19400 kPa): 1749.48 ± 4 kg/m3
- mass density ([1]; 308.15 K, 101.33 kPa): 1708.86 ± 2.5 kg/m3

Compound: ClCBr [bromochloromethane]
- mass density ([1]; 288.15 K, 101.33 kPa): 1945.94 ± 2.6 kg/m3
- mass density ([1]; 298.15 K, 101.33 kPa): 1924.88 ± 2.5 kg/m3
- mass density ([1]; 298.15 K, 200 kPa): 1923.54 ± 1.9 kg/m3
- mass density ([1]; 298.15 K, 500 kPa): 1923.88 ± 1.9 kg/m3
- mass density ([1]; 298.15 K, 1000 kPa): 1924.64 ± 2 kg/m3
- mass density ([1]; 298.15 K, 2100 kPa): 1926.24 ± 2.1 kg/m3
- mass density ([1]; 298.15 K, 2900 kPa): 1927.62 ± 2.2 kg/m3
- mass density ([1]; 298.15 K, 3800 kPa): 1928.77 ± 2.3 kg/m3
- mass density ([1]; 298.15 K, 4900 kPa): 1930.51 ± 2.5 kg/m3
- mass density ([1]; 298.15 K, 5900 kPa): 1932.03 ± 2.6 kg/m3
- mass density ([1]; 298.15 K, 7000 kPa): 1933.43 ± 2.8 kg/m3
- mass density ([1]; 298.15 K, 8000 kPa): 1934.88 ± 2.9 kg/m3
- mass density ([1]; 298.15 K, 8800 kPa): 1936.36 ± 3 kg/m3
- mass density ([1]; 298.15 K, 9800 kPa): 1937.83 ± 3.2 kg/m3
- mass density ([1]; 298.15 K, 11800 kPa): 1940.79 ± 3.4 kg/m3
- mass density ([1]; 298.15 K, 13900 kPa): 1944.25 ± 3.8 kg/m3
- mass density ([1]; 298.15 K, 15700 kPa): 1947.01 ± 4 kg/m3
- mass density ([1]; 298.15 K, 17800 kPa): 1950.26 ± 4.3 kg/m3
- mass density ([1]; 298.15 K, 19600 kPa): 1953.16 ± 4.6 kg/m3
- mass density ([1]; 308.15 K, 101.33 kPa): 1900.86 ± 2.5 kg/m3

Compound: BrCBr [dibromomethane]
- mass density ([1]; 288.15 K, 101.33 kPa): 2501.88 ± 4.2 kg/m3
- mass density ([1]; 298.15 K, 101.33 kPa): 2478.37 ± 4.1 kg/m3
- mass density ([1]; 298.15 K, 200 kPa): 2477.56 ± 3.1 kg/m3
- mass density ([1]; 298.15 K, 300 kPa): 2477.92 ± 3.1 kg/m3
- mass density ([1]; 298.15 K, 600 kPa): 2478.35 ± 3.2 kg/m3
- mass density ([1]; 298.15 K, 1000 kPa): 2478.9 ± 3.2 kg/m3
- mass density ([1]; 298.15 K, 2100 kPa): 2480.41 ± 3.5 kg/m3
- mass density ([1]; 298.15 K, 3000 kPa): 2481.88 ± 3.6 kg/m3
- mass density ([1]; 298.15 K, 4100 kPa): 2483.5 ± 3.9 kg/m3
- mass density ([1]; 298.15 K, 5000 kPa): 2484.84 ± 4 kg/m3
- mass density ([1]; 298.15 K, 5900 kPa): 2486.26 ± 4.2 kg/m3
- mass density ([1]; 298.15 K, 6900 kPa): 2487.82 ± 4.4 kg/m3
- mass density ([1]; 298.15 K, 8000 kPa): 2489.54 ± 4.7 kg/m3
- mass density ([1]; 298.15 K, 8800 kPa): 2490.92 ± 4.8 kg/m3
- mass density ([1]; 298.15 K, 9800 kPa): 2492.58 ± 5.1 kg/m3
- mass density ([1]; 298.15 K, 11800 kPa): 2494.98 ± 5.5 kg/m3
- mass density ([1]; 298.15 K, 13700 kPa): 2498.59 ± 5.9 kg/m3
- mass density ([1]; 298.15 K, 15800 kPa): 2502.33 ± 6.4 kg/m3
- mass density ([1]; 298.15 K, 15900 kPa): 2502.49 ± 6.4 kg/m3
- mass density ([1]; 298.15 K, 17700 kPa): 2505.74 ± 6.9 kg/m3
- mass density ([1]; 298.15 K, 19200 kPa): 2508.69 ± 7.2 kg/m3
- mass density ([1]; 298.15 K, 19300 kPa): 2508.84 ± 7.2 kg/m3
- mass density ([1]; 308.15 K, 101.33 kPa): 2451.74 ± 4 kg/m3

Compound: CCOC(C)=O [ethyl acetate]
- mass density ([1]; 288.15 K, 101.33 kPa): 906.71 ± 0.47 kg/m3
- mass density ([1]; 298.15 K, 101.33 kPa): 894.97 ± 0.49 kg/m3
- mass density ([1]; 298.15 K, 200 kPa): 894.2 ± 0.37 kg/m3
- mass density ([1]; 298.15 K, 600 kPa): 894.65 ± 0.37 kg/m3
- mass density ([1]; 298.15 K, 1100 kPa): 895.18 ± 0.38 kg/m3
- mass density ([1]; 298.15 K, 2100 kPa): 896.14 ± 0.39 kg/m3
- mass density ([1]; 298.15 K, 2900 kPa): 897.1 ± 0.4 kg/m3
- mass density ([1]; 298.15 K, 4000 kPa): 898.2 ± 0.41 kg/m3
- mass density ([1]; 298.15 K, 5100 kPa): 899.22 ± 0.43 kg/m3
- mass density ([1]; 298.15 K, 6000 kPa): 900.19 ± 0.44 kg/m3
- mass density ([1]; 298.15 K, 7000 kPa): 901.11 ± 0.45 kg/m3
- mass density ([1]; 298.15 K, 8000 kPa): 902.12 ± 0.46 kg/m3
- mass density ([1]; 298.15 K, 8900 kPa): 902.88 ± 0.47 kg/m3
- mass density ([1]; 298.15 K, 9900 kPa): 903.88 ± 0.48 kg/m3
- mass density ([1]; 298.15 K, 11700 kPa): 905.54 ± 0.5 kg/m3
- mass density ([1]; 298.15 K, 13800 kPa): 907.54 ± 0.52 kg/m3
- mass density ([1]; 298.15 K, 16000 kPa): 909.45 ± 0.54 kg/m3
- mass density ([1]; 298.15 K, 17600 kPa): 910.84 ± 0.56 kg/m3
- mass density ([1]; 298.15 K, 19500 kPa): 912.59 ± 0.57 kg/m3
- mass density ([1]; 308.15 K, 101.33 kPa): 882.27 ± 0.51 kg/m3 and 881.87 ± 0.51 kg/m3

Compound: CCOC(C)=O [ethyl acetate] + BrCBr
- mass density ([2]; 288.15 K): 906.71 ± 0.47 kg/m3
- mass density ([2]; 298.15 K): 894.97 ± 0.49 kg/m3
- mass density ([2]; 308.15 K): 882.27 ± 0.51 kg/m3

Compound: CCOC(C)=O [ethyl acetate] + ClCBr
- mass density ([2]; 288.15 K): 906.71 ± 0.47 kg/m3
- mass density ([2]; 298.15 K): 894.97 ± 0.49 kg/m3
- mass density ([2]; 308.15 K): 881.87 ± 0.51 kg/m3

Compound: CCOC(C)=O [ethyl acetate] + ClCCBr
- mass density ([2]; 288.15 K): 906.71 ± 0.47 kg/m3
- mass density ([2]; 298.15 K): 894.97 ± 0.49 kg/m3
- mass density ([2]; 308.15 K): 882.27 ± 0.51 kg/m3

Compound: CCOC(C)=O [ethyl acetate] + ClCCCl
- mass density ([2]; 288.15 K): 906.71 ± 0.47 kg/m3
- mass density ([2]; 298.15 K): 894.97 ± 0.49 kg/m3
- mass density ([2]; 308.15 K): 882.27 ± 0.51 kg/m3
